Laboratory results: patent US20110229482A1, “Method of inhibiting infection by HCV, other flaviviridae viruses, and any other virus that complexes to low density lipoprotein or to very low density lipoprotein in blood by preventing viral entry into a cell” (priority 2000, published 2011)
Read-outs that look alike come from different tables or passages of the source.

Legend:
[1] = test system: HCV; type: cell-based, hepatitis C virus; set-up: key to Endocytosis of 1 × 10^6 gE HCV from each fraction intensity of staining: ++: Moderately positive; +: Weakly positive
[2] = target: T1, LDL receptor (Homo sapiens, UniProt P01130); test: DiI-LDL endocytosis (uptake) by cultured cells, flow cytometry / fluorescence microscopy; type: cell-based; conditions: for Mean fluorescence: DiI-LDL treatment
T1 construct: endogenous in cells; host or cells: G4 B-lymphocyte line (human-mouse heterohybridoma fused with patient B cells), HepG2 hepatoma cells
Protocol: LDL Receptor Assays: Cells were cultured in Roswell Park Memorial Institute (RPMI) medium supplemented either with 10% BVDV-free bovine calf serum or with RPMI medium supplemented with 10% lipoprotein-deficient BVDV-free medium to upregulate expression of the LDL receptor. The cells were then washed twice with phosphate-buffered saline (PBS), pH 7.2. Cytospin preparations were made, fixed with acetone, blocked with 5% normal mouse serum, and the LDL receptor visualized by incubating the slides with 5 μg/ml purified IgG 2a monoclonal anti-LDL receptor antibody followed by a 1:50 dilution of fluorescein (FITC)-labeled goat anti-mouse [F(ab)′2] second antibody (Jackson Immunoresearch, West Grove, Pa.).
The cells were washed twice with cold PBS and fixed with 1% buffered paraformaldehyde, and cytospin preparations were made for fluorescent microscopic studies or cells in suspension were analyzed by flow cytometry. Flow cytometric analysis was performed using the Epic XL-MCL cytometer (Coulter Corp., Miami, Fla.) using a 575 BP filter. Nonspecific binding of DiI-LDL was determined using DiI-LDL treated with cyclohexanedione and was subtracted from the DiI-LDL binding to give specific DiI-LDL binding to cultured cells.

[3] = test system: HCV; type: in vivo, mouse
[4] = test system: LDL receptor; test: LDL receptor expression in liver sections of hLDLR Tg mice, fluorescence staining; type: in vivo; conditions: Tg mouse pretreated with 0.5 mg, then inoculated with HCV
[5] = density gradient fractions of HCV serum, ISH

T1 sequence (P01130 22-860): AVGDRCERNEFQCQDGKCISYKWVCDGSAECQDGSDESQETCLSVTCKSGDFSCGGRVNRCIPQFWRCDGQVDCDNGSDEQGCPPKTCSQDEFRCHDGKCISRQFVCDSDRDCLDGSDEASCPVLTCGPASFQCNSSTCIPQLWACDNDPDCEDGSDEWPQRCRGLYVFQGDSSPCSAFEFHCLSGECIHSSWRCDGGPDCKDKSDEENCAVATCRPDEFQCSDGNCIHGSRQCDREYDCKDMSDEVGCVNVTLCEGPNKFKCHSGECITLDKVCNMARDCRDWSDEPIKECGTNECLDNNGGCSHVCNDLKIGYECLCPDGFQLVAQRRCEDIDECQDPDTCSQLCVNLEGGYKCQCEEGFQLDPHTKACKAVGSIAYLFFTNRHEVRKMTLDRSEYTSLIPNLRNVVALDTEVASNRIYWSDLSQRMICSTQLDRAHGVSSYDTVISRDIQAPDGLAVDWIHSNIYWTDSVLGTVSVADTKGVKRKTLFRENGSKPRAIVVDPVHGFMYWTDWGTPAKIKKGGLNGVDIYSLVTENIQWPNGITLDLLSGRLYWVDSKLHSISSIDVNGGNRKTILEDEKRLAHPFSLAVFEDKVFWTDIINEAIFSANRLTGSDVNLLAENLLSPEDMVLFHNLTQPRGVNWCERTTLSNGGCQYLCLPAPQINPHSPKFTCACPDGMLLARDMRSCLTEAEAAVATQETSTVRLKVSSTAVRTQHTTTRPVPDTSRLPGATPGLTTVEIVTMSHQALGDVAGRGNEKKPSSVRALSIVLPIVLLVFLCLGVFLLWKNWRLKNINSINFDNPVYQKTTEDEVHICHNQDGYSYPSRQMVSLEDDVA

Compound: O=C(O)CN(CCOCCOCCN(CC(=O)O)CC(=O)O)CC(=O)O [EGTA, ethylene glycol bis(β-aminoethyl ether)-N,N,N′,N′-tetraacetic acid]
- Inhibition of endocytosis of HCV [1]: inhibited

Compound: heparin sulfate
- Inhibition of endocytosis of HCV ([1]; 25 units/ml): inhibited

Compound: LDL: low density lipoprotein, d=1.019-1.063 g/ml, from normal sera or purchased from Cortex
- Restoration of endocytosis of "free" HCV [1]: restoration of endocytosis
- Inhibition of endocytosis of HCV (competitive) ([1]; HepG2 or B cells (G4 and E11), 25-100 μg/ml): completely inhibited
- Endocytosis of 1 × 10^6 gE HCV from each fraction % cell positive [1, 5]: 75%
- Endocytosis of 1 × 10^6 gE HCV from each fraction intensity of staining [1, 5]: +
- Endocytosis of 5 μg DiI-labeled fraction mean fluorescence (log scale) ([2]; density gradient fractions of HCV serum): 9.98
- Inhibition of uptake of DiI-LDL ([2]; upregulated G4 cells, 5 μg DiI-LDL, excess unlabeled LDL): completely inhibited

Compound: CC(C)c1c(C(=O)Nc2ccccc2)c(-c2ccccc2)c(-c2ccc(F)cc2)n1CC[C@@H](O)C[C@@H](O)CC(=O)O [atorvastatin]
- Quantitative HCV of the liver ([3]; Tg mouse pretreated with 0.5 mg, control mouse 43): 163 HCV gE per mg liver
- Modulation of LDL receptor (fluorescence staining) [4]: upregulation of the LDL receptor

Compound: soluble LDL receptor: soluble LDL receptor (SEQ ID NO:1)
- Inhibition of endocytosis of HCV ([1]; Daudi cells, pretreatment 30 minutes at 37° C., HCV 2 hours at 37° C.): completely inhibits

Compound: DiI-LDL: LDL labeled with 1,1′-dioctadecyl-3,3,3′,3′-tetramethylindocarbocyanine iodine (DiI)
- Mean fluorescence ([2]; G4 cells, lipoprotein deficient medium (upregulated LDL receptor)): 16 ± 7
- Mean fluorescence ([2]; G4 cells, routine culture medium (RPMI with 10% fetal bovine serum)): 4 ± 2.0
- Mean fluorescence ([2]; HepG2 cells, routine culture medium): 16 ± 5

Compound: 5^th repeat peptide: 39 amino acid 5th repeat of the ligand binding domain of the LDL receptor, amino acids 193-231 of SEQ ID NO:1
- Inhibition of endocytosis of HCV by hepatocytes ([3]; hLDLR Tg mouse, 1 mg one hour prior to intraperitoneal HCV (5.0×10^6 gE)): completely inhibits
